Activity calls are given as the source filed them.
What was measured:
[1] = cytotoxicity in HEK-293T cells, dose response, cytotoxicity control for BCR NF-kB inhibitor project, luminescence, B-cell screen hits (AID 489021); format: functional, cell-based;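 further: HEK-293T cells carrying an NF-kB luciferase reporter; cells exposed to compound for about 14 hours before viability readout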
[2] = target: Peroxisome proliferator-activated receptor gamma/Nuclear receptor coactivator 3 (Homo sapiens, UniProt P37231); test: TR-FRET dose response biochemical High Throughput Screening assay for agonists of the steroid receptor coactivator 3 (SRC-3) recruitment by the peroxisome proliferator-activated receptor gamma (PPAR gamma): non-selective agonists. [Related pubchem assays: 1301 (Confirmation screen.), 1048 (Primary screen.)]; format: functional
Sequence of Peroxisome proliferator-activated receptor gamma/Nuclear receptor coactivator 3 (P37231 whole entry): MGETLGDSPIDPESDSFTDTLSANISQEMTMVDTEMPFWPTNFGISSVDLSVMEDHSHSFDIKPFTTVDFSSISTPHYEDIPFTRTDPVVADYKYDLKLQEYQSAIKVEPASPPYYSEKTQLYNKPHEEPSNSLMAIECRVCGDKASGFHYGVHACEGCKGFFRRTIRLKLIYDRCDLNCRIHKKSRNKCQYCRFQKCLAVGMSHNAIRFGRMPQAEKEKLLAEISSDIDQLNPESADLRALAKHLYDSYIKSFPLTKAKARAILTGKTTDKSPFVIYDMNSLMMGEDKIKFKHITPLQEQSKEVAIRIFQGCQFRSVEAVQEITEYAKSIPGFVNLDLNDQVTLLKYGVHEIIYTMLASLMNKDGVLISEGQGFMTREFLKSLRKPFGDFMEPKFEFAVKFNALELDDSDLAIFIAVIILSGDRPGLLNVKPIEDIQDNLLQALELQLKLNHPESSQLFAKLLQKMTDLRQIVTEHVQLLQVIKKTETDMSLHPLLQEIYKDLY
Sequence of Peroxisome proliferator-activated receptor gamma/Nuclear receptor coactivator 3 (Q9Y6Q9 whole entry, further chain): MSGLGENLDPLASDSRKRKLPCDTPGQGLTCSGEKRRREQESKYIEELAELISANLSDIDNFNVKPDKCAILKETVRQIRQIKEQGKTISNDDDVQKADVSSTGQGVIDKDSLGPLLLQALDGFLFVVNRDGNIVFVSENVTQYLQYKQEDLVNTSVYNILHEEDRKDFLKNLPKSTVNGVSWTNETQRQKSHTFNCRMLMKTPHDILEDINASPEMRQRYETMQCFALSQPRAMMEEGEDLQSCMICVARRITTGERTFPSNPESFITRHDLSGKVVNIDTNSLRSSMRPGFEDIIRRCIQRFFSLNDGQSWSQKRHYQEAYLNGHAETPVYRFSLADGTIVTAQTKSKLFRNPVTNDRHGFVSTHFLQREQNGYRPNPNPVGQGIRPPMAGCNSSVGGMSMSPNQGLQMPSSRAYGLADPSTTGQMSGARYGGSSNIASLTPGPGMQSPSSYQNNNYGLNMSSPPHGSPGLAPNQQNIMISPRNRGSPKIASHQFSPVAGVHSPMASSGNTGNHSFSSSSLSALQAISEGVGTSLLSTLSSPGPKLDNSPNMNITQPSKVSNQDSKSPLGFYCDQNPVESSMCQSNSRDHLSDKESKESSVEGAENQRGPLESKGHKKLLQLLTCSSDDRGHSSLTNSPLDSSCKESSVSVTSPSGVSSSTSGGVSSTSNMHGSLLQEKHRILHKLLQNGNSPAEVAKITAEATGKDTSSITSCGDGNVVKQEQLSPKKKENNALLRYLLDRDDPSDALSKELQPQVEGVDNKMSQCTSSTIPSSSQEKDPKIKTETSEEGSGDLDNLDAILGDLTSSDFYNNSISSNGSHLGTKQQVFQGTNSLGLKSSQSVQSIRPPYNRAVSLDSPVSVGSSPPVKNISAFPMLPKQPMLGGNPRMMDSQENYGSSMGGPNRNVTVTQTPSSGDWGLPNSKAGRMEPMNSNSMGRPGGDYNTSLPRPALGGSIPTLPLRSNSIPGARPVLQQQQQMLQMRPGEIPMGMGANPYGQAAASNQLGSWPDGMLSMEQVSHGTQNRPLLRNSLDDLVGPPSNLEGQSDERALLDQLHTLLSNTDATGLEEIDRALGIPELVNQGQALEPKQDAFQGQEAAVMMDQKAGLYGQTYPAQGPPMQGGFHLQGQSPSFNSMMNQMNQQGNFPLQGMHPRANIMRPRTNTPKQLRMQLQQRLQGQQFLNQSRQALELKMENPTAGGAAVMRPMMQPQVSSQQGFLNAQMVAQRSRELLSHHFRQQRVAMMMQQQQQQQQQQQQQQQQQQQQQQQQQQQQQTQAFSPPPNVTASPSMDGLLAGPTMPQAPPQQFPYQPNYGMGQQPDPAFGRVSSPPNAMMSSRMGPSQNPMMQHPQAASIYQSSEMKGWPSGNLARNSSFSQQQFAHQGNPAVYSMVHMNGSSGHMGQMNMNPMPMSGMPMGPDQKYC

[3] = target: Peroxisome proliferator-activated receptor gamma/Nuclear receptor coactivator 2 (Homo sapiens, UniProt P37231); test: (§1) TR-FRET dose response biochemical High Throughput Screening assay for agonists of the steroid receptor coactivator 2 (SRC-2) recruitment by the peroxisome proliferator-activated receptor gamma (PPAR gamma): non-selective agonists. [Related pubchem assays: 1297, 1032 ]; format: functional
[4] = target: Peroxisome proliferator-activated receptor gamma/Nuclear receptor coactivator 1 (Homo sapiens, UniProt P37231); test: as §1, with “1 (SRC-1)” for “2 (SRC-2)”, “assays (depositor defined):AID1300, AID1808, AID504735, AID631]” for “assays: 1297, 1032 ]”; format: protein assay
Sequence of Peroxisome proliferator-activated receptor gamma/Nuclear receptor coactivator 1 (P37231 whole entry): as the sequence (P37231 whole entry) above
Sequence of Peroxisome proliferator-activated receptor gamma/Nuclear receptor coactivator 1 (Q15788 whole entry, further chain): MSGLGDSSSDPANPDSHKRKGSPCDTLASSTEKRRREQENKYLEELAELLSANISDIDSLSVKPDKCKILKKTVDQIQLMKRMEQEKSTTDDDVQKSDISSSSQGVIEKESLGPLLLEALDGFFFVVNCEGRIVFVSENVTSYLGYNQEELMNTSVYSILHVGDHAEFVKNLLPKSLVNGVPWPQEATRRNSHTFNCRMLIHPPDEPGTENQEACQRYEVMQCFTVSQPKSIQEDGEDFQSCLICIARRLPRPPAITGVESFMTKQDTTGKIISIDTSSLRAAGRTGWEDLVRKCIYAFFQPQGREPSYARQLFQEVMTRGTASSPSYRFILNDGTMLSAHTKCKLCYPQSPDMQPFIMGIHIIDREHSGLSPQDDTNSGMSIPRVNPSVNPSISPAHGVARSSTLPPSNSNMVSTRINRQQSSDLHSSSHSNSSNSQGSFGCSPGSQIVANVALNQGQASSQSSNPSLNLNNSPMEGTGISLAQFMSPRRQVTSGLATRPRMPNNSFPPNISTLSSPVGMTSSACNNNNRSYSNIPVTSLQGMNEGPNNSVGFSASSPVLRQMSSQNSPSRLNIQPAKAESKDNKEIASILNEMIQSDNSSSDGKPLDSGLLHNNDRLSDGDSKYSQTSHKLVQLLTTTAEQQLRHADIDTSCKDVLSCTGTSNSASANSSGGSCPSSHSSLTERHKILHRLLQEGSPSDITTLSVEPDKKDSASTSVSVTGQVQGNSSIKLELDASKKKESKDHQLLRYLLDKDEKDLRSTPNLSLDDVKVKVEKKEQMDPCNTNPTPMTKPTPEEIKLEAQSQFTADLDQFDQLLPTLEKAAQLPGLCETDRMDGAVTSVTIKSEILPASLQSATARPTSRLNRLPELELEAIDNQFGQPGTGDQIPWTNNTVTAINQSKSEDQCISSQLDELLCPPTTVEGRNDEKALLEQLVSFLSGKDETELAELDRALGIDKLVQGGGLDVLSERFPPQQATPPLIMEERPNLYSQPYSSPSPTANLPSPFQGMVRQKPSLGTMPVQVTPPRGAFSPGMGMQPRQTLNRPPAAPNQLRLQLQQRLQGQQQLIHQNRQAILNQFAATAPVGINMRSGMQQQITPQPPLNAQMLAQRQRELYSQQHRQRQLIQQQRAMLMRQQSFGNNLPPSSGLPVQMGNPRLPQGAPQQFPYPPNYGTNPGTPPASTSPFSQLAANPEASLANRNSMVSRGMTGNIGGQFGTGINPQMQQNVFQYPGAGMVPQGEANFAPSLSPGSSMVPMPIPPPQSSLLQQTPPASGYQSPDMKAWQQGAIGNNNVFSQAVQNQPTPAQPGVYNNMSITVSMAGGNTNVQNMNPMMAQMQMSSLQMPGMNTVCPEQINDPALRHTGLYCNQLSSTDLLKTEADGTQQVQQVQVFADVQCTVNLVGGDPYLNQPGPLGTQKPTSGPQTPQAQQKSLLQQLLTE

HEK293 = test: inhibitors of LMP1-driven NF-kB reporter, dose response, cell-based, HEK293, luciferase, cherry-pick (AID 588343); format: functional; conditions: Homo sapiens
INS1 = test: beta cell apoptosis inhibitors, cytokine rescue, dose response, luminescence, retest (AID 449756); format: functional, cell-based; conditions: Rattus norvegicus;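 further: cell death triggered by IL-1 beta plus TNF-alpha plus IFN-gamma mixture; protective hits raise ATP signal compared with cytokine alone wells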
[5] = system: Streptococcus sp. 'group A'; test: growth inhibition of control SK(-) GAS strain, dose response, counter-screen for streptokinase expression inhibitor project, luminescence, kanamycin, BacTiterGlo, confirmation (AID 1900); format: functional, organism-based
Streptococcus = test: Group A Streptococcus viability loss, dose response, counter-screen for streptokinase expression inhibitor project, luminescence, BacTiterGlo (AID 1915); format: functional, organism-based;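 further: potency for reduction of bacterial viability or growth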
[6] = target: T1, COUP transcription factor 2 (Homo sapiens, UniProt P24468); test: Luminescence-based cell-based high throughput dose response assay to identify inhibitors of COUP-TFII (NR2F2).; format: functional;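 further: HEK293 cells transiently cotransfected with COUP-TFII expression vector and reporter; luciferase reporter luminescence driven by COUP-TFII from the pX2-168 reporter plasmid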
T1 sequence (P24468 whole entry): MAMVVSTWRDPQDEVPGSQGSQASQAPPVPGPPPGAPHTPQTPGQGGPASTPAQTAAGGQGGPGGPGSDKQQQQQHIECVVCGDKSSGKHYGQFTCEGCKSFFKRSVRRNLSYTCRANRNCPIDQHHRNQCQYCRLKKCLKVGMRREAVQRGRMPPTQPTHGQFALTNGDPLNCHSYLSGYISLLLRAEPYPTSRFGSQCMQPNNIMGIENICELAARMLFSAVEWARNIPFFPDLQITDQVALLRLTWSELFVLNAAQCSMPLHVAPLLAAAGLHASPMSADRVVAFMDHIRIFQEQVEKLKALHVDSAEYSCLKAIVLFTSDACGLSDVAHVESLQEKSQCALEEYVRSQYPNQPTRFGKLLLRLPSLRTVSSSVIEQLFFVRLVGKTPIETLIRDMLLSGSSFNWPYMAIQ

Protein Wnt-3a = Protein Wnt-3a (Mus musculus, UniProt P27467); test: Wnt3a-driven reporter signaling inhibition, dose response, selectivity assay for Gli-SUFU antagonist project, Wnt-LIGHT cells, luminescence (AID 651570); format: functional; conditions: read-out: IC50_Mean;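 further: Wnt-LIGHT reporter cells stimulated with conditioned medium from Wnt3a-producing cells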
Sequence of Protein Wnt-3a (P27467 whole entry): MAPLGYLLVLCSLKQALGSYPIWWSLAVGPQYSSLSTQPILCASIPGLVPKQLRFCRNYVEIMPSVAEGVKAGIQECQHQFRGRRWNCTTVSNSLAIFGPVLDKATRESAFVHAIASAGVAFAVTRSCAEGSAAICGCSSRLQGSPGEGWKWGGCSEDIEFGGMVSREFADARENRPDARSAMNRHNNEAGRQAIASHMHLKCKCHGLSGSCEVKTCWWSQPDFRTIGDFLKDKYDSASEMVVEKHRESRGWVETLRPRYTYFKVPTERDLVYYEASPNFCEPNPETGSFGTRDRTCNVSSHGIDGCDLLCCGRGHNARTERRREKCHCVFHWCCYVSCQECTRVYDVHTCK

Cytochrome P450 1A2 = target: T2, Cytochrome P450 1A2 (Homo sapiens, UniProt P05177);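 further: PubChem cytochrome P450 panel assay, CYP1A2 panel member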
T2 sequence (P05177 whole entry): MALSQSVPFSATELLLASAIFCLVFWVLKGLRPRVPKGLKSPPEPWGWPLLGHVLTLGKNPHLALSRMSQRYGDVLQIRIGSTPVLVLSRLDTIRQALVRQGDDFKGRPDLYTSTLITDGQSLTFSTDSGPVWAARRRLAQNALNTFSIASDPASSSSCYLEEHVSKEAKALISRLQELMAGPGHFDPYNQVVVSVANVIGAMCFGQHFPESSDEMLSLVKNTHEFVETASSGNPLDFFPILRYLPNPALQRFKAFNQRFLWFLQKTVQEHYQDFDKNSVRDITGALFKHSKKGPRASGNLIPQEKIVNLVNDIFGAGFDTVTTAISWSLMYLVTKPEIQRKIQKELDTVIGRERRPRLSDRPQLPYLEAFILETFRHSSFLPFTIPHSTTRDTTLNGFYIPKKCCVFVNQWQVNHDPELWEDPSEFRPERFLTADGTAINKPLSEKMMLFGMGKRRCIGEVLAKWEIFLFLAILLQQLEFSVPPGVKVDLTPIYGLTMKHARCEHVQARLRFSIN

Cytochrome P450 2C9 = Cytochrome P450 2C9 (Homo sapiens, UniProt P11712)
Sequence of Cytochrome P450 2C9 (P11712 whole entry): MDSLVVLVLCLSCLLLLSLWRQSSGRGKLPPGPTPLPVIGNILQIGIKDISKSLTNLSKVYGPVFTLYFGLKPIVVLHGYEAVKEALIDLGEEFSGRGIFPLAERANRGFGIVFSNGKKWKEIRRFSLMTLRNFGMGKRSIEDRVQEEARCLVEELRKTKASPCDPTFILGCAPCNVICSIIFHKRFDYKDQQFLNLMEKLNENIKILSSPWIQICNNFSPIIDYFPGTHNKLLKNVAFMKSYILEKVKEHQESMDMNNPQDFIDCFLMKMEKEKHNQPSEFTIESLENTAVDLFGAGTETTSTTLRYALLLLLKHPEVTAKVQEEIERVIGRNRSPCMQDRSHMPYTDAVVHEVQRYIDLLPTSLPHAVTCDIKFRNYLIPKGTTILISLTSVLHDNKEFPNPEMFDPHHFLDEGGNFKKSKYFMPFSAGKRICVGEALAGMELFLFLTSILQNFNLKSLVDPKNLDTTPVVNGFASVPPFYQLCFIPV

Cytochrome P450 2C19 = Cytochrome P450 2C19 (Homo sapiens, UniProt P33261); test: Cytochrome panel assay with activity outcomes. Panel member name: p450-cyp2c19 Compounds with AC50 equal or less than 10 uM are considered active; format: functional; conditions: read-out: AC50
Cytochrome P450 3A4 = Cytochrome P450 3A4 (Homo sapiens, UniProt P08684);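 further: CYP3A4 tested as one member of a cytochrome P450 panel screen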
[7] = target: Dual specificity tyrosine-phosphorylation-regulated kinase 1A (Rattus norvegicus, UniProt Q63470); format: biochemical, Homo sapiens

**Q.** For `CCn1c(=O)cc(SCC(=O)N2CCN(C)CC2)c2ccccc21`, which IC50 [1] is on record?
**A.** > 80 µM (inactive)

**Q.** What about the EC50 [2] of the same compound?
**A.** > 79.4 µM (not active)

**Q.** What about the EC50 [3] of the same compound?
**A.** > 79.4 µM (not active)

**Q.** What about the EC50 [4] of the same compound?
**A.** > 79.4 µM (inactive)

**Q.** What does the source list for `Cc1cc(N/N=C\c2ccc(Br)cc2)nc(-n2nc(C)cc2C)n1`?
**A.** AC50 (HEK293): 3.83 µM (active); AC50 (INS1): 2.43 µM (active); EC50 [5]: 1.01 µM (active); EC50 (Streptococcus): 3.74 µM (active)

**Q.** Which results are given for `Nc1ccccc1-c1nnc(S)s1`?
**A.** EC50 [2]: > 79.4 µM (not active); EC50 [3]: 15.6 µM (not active); EC50 [4]: 14.9 µM (inactive)

**Q.** What does the source list for `Cc1sc2ncnc(NCC3COc4ccccc4O3)c2c1C` (stereo not given)?
**A.** IC50 [6]: 3.38 µM (active); AC50 (HEK293): 35.9 µM (active); IC50 (Protein Wnt-3a): 0.441 µM (active); AC50 (INS1): 1.68 µM (active)

**Q.** Which AC50 (Cytochrome P450 1A2) does the source give for `CCCN(CCC)CCc1c[nH]c2ccc(C(N)=O)cc12` here?
**A.** 15.8 µM (inconclusive)

**Q.** And the AC50 (Cytochrome P450 2C9)?
**A.** inconclusive

**Q.** With `COCCn1c(C)cc(C(=O)COC(=O)C23CC4CC(CC(O)(C4)C2)C3)c1C` as the compound, how does the AC50 (HEK293) read?
**A.** 7.37 µM (active)

**Q.** Which AC50 (Cytochrome P450 2C9) does the source give for `CN(CCCNC(=O)C1CCN(S(=O)(=O)c2cccc3nsnc23)CC1)Cc1ccccc1` here?
**A.** inconclusive

**Q.** And the AC50 (Cytochrome P450 2C19)?
**A.** 39.8 µM (inconclusive)

**Q.** And the AC50 (Cytochrome P450 3A4)?
**A.** 3.16 µM (inconclusive)

**Q.** Which AC50 [7] does the source give for `CCO/C(=C/c1sc2ccc(OC)cc2[n+]1CCCS(=O)(=O)[O-])CC` here?
**A.** 9.02 µM (active)

**Q.** With `CC(=O)N1N=C(c2ccc(Br)cc2)CC1c1cn(C)c2ccccc12` (stereo not given) as the compound, how does the EC50 [2] read?
**A.** > 79.4 µM (not active)

**Q.** And the EC50 [3]?
**A.** 18.3 µM (not active)

**Q.** What about the EC50 [4] of the same compound?
**A.** 18.5 µM (inactive)

Source: ChEMBL document CHEMBL1201862, “PubChem BioAssay data set” (2004)
